Patent US20230095341A1, “COMPOSITIONS AND METHODS FOR TREATING NEURODEGENERATIVE, MYODEGENERATIVE, AND LYSOSOMAL STORAGE DISORDERS” (GEORGETOWN UNIVERSITY, priority 2020, published 2023)
“Also recorded” adds a separate entry of the source.

Experiments:
[1] = system: Tauopathy rTG4510 mice expressing human P301L tau; experiment: Overnight nest shredding (nesting) behavior; assay type: in vivo, mouse; settings: 2.5 mg/kg I.P., three weeks
Method: Tauopathy rTG4510 mice (i.e., a mouse model that clinically manifest a tauopathy), expressing human P301L tau driven by a CAMrII promoter, approximately 9-12 months old, were treated intraperitoneally (I.P.) for 21 consecutive days, […], or Dimethyl sulfoxide (DMSO) (n=7).
Then, blinded, independent observers reviewed images of the overnight shredding and the average quality scores were calculated.
For nest shredding, Mann-Whitney analysis was used within groups, between timepoints, and Kruskal-Wallis analysis was used between treatment groups. For open-field studies, : ordinary one-way ANOVA or Student's I test was used. […]
Blinded independent observers reviewed images of the overnight shredding and the average quality scores were calculated.

[2] = system: Tauopathy rTG4510 mice expressing human P301L tau; experiment: Open-field behavior; assay type: in vivo, mouse
Method: (§1) Tauopathy rTG4510 mice (i.e., a mouse model that clinically manifest a tauopathy), expressing human P301L tau driven by a CAMrII promoter, approximately 9-12 months old, were treated intraperitoneally (I.P.) for 21 consecutive days, with 2.5 mg/kg (n=6) BK40197, 5.0 mg/kg (n=6) BK40197, or Dimethyl sulfoxide (DMSO) (n=7).
Open-field behavior was assessed in an open-field apparatus where animals were tracked by photocell beams along the arena floor for 60 minutes. Data were collected and analyzed for total distance traveled (cm), total time spent moving (sec), and velocity (distance/time) during the 60-minute trial. A center zone was digitally defined in the software, in the center of the apparatus, and center zone entries during the 60-minute trial were recorded.
For nest shredding, Mann-Whitney analysis was used within groups, between timepoints, and Kruskal-Wallis analysis was used between treatment groups. For open-field studies, : ordinary one-way ANOVA or Student's I test was used.

p-Tau (Ser396) = experiment: pTau Ser396 ELISA of total brain lysates; assay type: in vivo, mouse (rTG4510, expressing human P301L tau); settings: for reduction in pTau Ser396: vs DMSO
Method: as §1
pTau Ser396 (Invitrogen, Cat. No. KHB7031, Carlsbad, Calif.) were performed according to manufacturer's protocol on samples collected from DMSO, 2.5 mg/kg-, and 5.0 mg/kg-treated animals. Samples for ELISA were total brain lysates extracted in IX STEN buffer.

p-Tau AT180 (Thr231) = experiment: Western blot of p-Tau AT180 (Thr231); assay type: in vivo, mouse (rTG4510, expressing human P301L tau); settings: 2.5 mg/kg; vs DMSO
Method: as §1
(§2) Samples collected from DMSO, 2.5 mg/kg-, and 5.0 mg/kg-treated animals were electrophoresed in a NuPAGE 10% Bis-Tris gel and transferred to a nitrocellulose membrane. Membranes were then probed for total humnan tau (HT-7 antibody and Tau-5 antibody) and phospho-tau (pTau AT180 antibody and pTau AT8 antibody), as well as actin, and treated with an anti-mouse secondary antibody. before exposure using SuperSignal West Dura (Thermo Fisher Scientific, Waltham, Mass.) substrates. Some animials were excluded from analysis due to low transgene expression.

[3] = target: T1, phosphorylated DDR1 (pDDR1 Tyr513, 296) (Mus musculus, UniProt Q03146); experiment: Western blot of phosphorylated DDR1; assay type: in vivo, mouse (rTG4510); settings: vs DMSO, normalized to actin
T1 construct: Samples collected from DMSO, 2.5 mg/kg-, and 5.0 mg/kg-treated animals were electrophoresed; from tissue; the ELISA samples were total brain lysates
T1 sequence (Q03146 20-911): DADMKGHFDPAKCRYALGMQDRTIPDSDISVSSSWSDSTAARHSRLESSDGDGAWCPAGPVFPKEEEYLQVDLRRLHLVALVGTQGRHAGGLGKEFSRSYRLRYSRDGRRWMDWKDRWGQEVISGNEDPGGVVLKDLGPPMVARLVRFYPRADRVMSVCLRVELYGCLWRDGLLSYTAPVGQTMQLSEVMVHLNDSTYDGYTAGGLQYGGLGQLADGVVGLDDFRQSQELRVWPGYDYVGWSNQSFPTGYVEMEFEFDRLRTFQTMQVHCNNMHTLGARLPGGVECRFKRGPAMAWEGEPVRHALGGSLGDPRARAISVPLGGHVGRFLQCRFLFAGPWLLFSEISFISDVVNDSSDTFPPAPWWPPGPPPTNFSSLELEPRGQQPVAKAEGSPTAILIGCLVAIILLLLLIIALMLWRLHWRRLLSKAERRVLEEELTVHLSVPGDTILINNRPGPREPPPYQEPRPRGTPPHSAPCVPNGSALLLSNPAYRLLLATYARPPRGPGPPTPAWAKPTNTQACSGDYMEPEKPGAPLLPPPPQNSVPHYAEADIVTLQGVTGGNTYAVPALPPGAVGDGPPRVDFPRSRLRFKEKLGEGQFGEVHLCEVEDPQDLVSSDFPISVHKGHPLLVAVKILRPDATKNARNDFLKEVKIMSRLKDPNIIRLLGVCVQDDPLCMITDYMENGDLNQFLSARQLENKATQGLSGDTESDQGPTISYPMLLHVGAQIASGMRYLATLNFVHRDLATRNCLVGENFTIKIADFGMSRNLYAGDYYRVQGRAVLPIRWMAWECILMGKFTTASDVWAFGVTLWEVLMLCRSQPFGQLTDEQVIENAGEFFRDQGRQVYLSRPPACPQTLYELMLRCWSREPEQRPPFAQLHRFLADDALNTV

[4] = system: p-Tau AT8 (Ser202, Thr205); experiment: Western blot of p-Tau AT8 (Ser202, Thr205); assay type: in vivo, mouse (rTG4510, expressing human P301L tau); settings: 2.5 mg/kg; vs DMSO
Method: as §1, §2

[5] = system: B35 rat neuroblastoma cells; experiment: MTT assay, cell viability; assay type: cell-based; settings: 5 hours, concentration given in the value
Method: (§3) Rat neuroblastoma B35 cells were grown in Dulbecco's Modified Eagle's Medium (DMEM) with 10% Fetal Bovine Serum (FBS) and 1% penicillin/streptomycin and incubated at 37° C. with 5% CO2. For the experiments, cells were transferred to 12-well plates (Cat. #150628, ThermoFisher, Waltham, Mass.) and grown to at least 70% confluence. Transient transfection was performed with 3pg P301L tau (Cat. #30145, Addgene) cDNA or 3pg human a-synuclein cDNA using Fugene HD transfection reagent (Cat. #E2311, Promega, Madison Wis.) for 24 hours. Cells were treated with ImM, I00pM, 10pM, IpM, 0.lIM, 0.01pMl, and 0.001pM dissolved in DMSO or an equivalent SuL of DMSO for 5 hours. Cell culture media was collected and cells were harvested using sodium-tris, EDTA, NP-40 (STEN) buffer and centrifuged at 10,000×g for 20 minutes at 4′C and supernatant was collected. Cell viability was determined via lactate dehydrogenase assay (Cat. #88954, Thermofisher) and MTT assay (Cat. #V13154, Thennofisher). Protein was extracted by removing culture medium and adding 0.2 ml lx STEN buffer (50 mM Tris (pH 7.6), 150 mM NaCl, 2 mM EDTA, 0.2% NP-40, 0.2% BSA, 20 mM PMSF and protease cocktail inhibitor) to cell layer and incubated on ice for 10 minutes. The bottom of the well was scraped and allowed to incubate on ice for an additional 10 minutes. Cell lysates were collected, stored at -80° C., and used for additional analyses.
(§4) Compound 1 (BK5018), Compound 2 (BK5026), Compound 3 (BK5029), Compound 4 (BD5040), Compound 6 (CL2-296). Compound 7 (CL-2-287-1) and Compound 8 (CL-2-287-2) with molecular weights of 284, 339.265, 264, 339, 269 and 247 gimol, respectively, were diluted in Dimethyl Sulfoxide (DMSO) to final concentrations of 100 pM, 10 µM, 1 pM, 0.1 pM, 0.01 pM, and 0.001 pM. Drugs were stored at −80° C.
To measure cell viability, cells were incubated with 500 pL of Dulbecco's Modified Eagle's Medium (DMEf) containing 50 pL of (3-[4,5-dimethylthiazol-2-yl]-2,5-diphenyl-tetrazolium bromide (ivT)) for 5 hours at 37° C. and 5% CO2. The media was aspirated so that 125 uL of media remained. The formazan salts were dissolved in 250 uL of DMSO. Absorbance was read against a blank containing 125 uL of media and MTT, and 250 uL of DMSO at 570 mn.

tau = experiment: Tau ELISA of whole brain lysates from rTG4510 mice (CL-287-2); assay type: in vivo, mouse (rTG4510, expressing human P301L Tau); settings: 5 mg/kg; 12 month old rTG4510 mice
Method: Tauopathy rTG4510 mice expressing human P301L Tau driven by CAMIII were treated I.P. for 7 or 21 consecutive days with 1.25 mg/kg, 2.5 mg/kg, 5.0 mg/kg of BK40143 or Dimethyl sulfoxide (DMSO).
pTau Ser396 (Invitrogen, KHB7031) ELISA was performed according to manufacturer's protocol on samples collected from DMSO and 2.5mgkg. S.Omg′kg, and 10 mg/kg treated mice. Samples were total brain lysates extracted in lX STEN buffer. Ordinary one-way ANOVA or Student's ! test was used. * P<0.05

[6] = system: B35 rat neuroblastoma cells; experiment: Lactate dehydrogenase (LDH) assay, cell toxicity; assay type: cell-based; settings: 5 hours, concentration given in the value
Method: as §3, §4
Cellular cytotoxicity was quantitatively measured by assessment of LDH, a cytosolic enzyme that is released from damaged cells into the cellular media, after exposure to the drug 5 hours after initial dosage. The cell culture media was collected, and an aliquot was coupled with a lactate and NAD+. LDH catalyzes the reaction that converts lactate into pyruvate to produce NADH. NADH, in turn, reduces a tetrazolium salt (NT) into a red fornazan product. The amount of LDH in the media is proportional to the amount of formazan which was measured at 490 nn. The absorbance at 680 nm, to measure the background signal from the instrument, was subtracted from the absorbance at 490 nm to calculate the LDH activity. CelfCulture

reduction in phosphorylated DDR1 (pDDR1 Tyr513, 296) ([3]; 2.5 mg/kg) [%]	reduction in phosphorylated DDR1 (pDDR1 Tyr513, 296) ([3]; 5.0 mg/kg) [%]	SMILES	nesting raw scores (nesting qualitative score) ([1]; vs 0 weeks (Mann-Whitney P=0.09) and vs DMSO (Kruskal-Wallis P=0.06))	nesting mean difference scores ([1]; vs DMSO (Kruskal-Wallis P=0.06))	overall motor ability (open field) ([2]; 5.0 mg/kg I.P., 60 minutes open field)	open-field distance travelled ([2]; 5.0 mg/kg, sixty minutes, vs DMSO (ANOVA p=0.29))	open-field time spent moving ([2]; 5.0 mg/kg, sixty minutes, vs DMSO (ANOVA p=0.32))	hyperactivity/anxiety by observed center zone entries ([2]; 5.0 mg/kg, vs DMSO)	open-field velocity ([2]; 5.0 mg/kg, vs DMSO)	reduction in pTau Ser396 (p-Tau (Ser396); 2.5 mg/kg) [%]	reduction in pTau Ser396 (p-Tau (Ser396); 5.0 mg/kg) [%]	p-Tau (Ser396) levels (p-Tau (Ser396); dose dependent, 2.5 and 5.0 mg/kg, quantitative ELISA)	reduction in the ratio of p-Tau (Thr231) (AT180) to total Tau (p-Tau AT180 (Thr231)) [%]	reduction in the ratio of p-Tau AT8 (Ser202, Thr205) to total Tau [4] [%]	cell toxicity, as measured by MTT assay [5]	tau in whole brain lysates (tau)	cell toxicity, as measured by LDH assay [6]
22	21	Cc1cccc(-c2cc3nccc(N4CCOCC4)c3s2)c1 [BK40197, 4-(2-(m-Tolyl)thieno[3,2-b]pyridin-7-yn)morpholine]	nesting performance improved; also recorded: increase in performance	nesting performance improved; also recorded: increase in performance	does not alter overall motor ability	non-significant reduction	non-signicant reduction; also recorded: non-significant reduction	no sign of hyperactivity/anxiety; also recorded: no sign of hyperactivity % anxiety	no difference in velocity	11	23	significantly reduces	22	14			
		O=C(O)c1ccccc1Nc1cccc(Cl)c1 [CL-2-287-2, 2-((3-Chlorophenyl)amino)benzoic acid]													at 10 pM or less did not show increased cell toxicity	significant reduction	at 100 uM or less did not show increased cell toxicity; also recorded: at 100 pM or less did not show increased cell toxicity
